The OPERA property sets (Mansouri et al. 2018)

SMILES | logP
COc1ccc2c(OC(C)=O)c(OC)c(OC)c(OC(C)=O)c2c1 | 2.39
COc1c(OC)c(OC(C)=O)c2cc(F)ccc2c1OC(C)=O | 2.75
COc1c(OC)c(OC(=O)C(C)(C)C)c2ccccc2c1OC(=O)C(C)(C)C | 5.69
COc1c(OC)c(OC(C)=O)c2cc(C)ccc2c1OC(C)=O | 2.86
COc1c(OC)c(OC(C)=O)c2cc(C#N)ccc2c1OC(C)=O | 2.28
COc1c(OC)c(OC(=O)C(C)C)c2ccccc2c1OC(=O)C(C)C | 4.61

The remaining lines, values ahead:

logP | SMILES
2.39 | COc1c(OC)c(OC(C)=O)c2ccccc2c1OC(C)=O
2.43 | COc1c(OC)c(OC(C)=O)c2c(OC)cccc2c1OC(C)=O
3.16 | COc1c(OC)c(OC(C)=O)c2c(Cl)cccc2c1OC(C)=O
2.51 | COc1c(OC)c(OC(C)=O)c2c(C#N)cccc2c1OC(C)=O
3.39 | COc1c(OC)c(OC(C)=O)c2cc(Br)ccc2c1OC(C)=O
3.26 | COc1c(OC)c(OC(C)=O)c2cc(Cl)ccc2c1OC(C)=O
